Molecular target: T1, CERT (Homo sapiens, UniProt Q9Y5P4)
T1 construct: made in house; host or cells: E. coli BL21 (DE3), pET-28a(+)
T1 sequence (Q9Y5P4 1-598 isoform Q9Y5P4-2): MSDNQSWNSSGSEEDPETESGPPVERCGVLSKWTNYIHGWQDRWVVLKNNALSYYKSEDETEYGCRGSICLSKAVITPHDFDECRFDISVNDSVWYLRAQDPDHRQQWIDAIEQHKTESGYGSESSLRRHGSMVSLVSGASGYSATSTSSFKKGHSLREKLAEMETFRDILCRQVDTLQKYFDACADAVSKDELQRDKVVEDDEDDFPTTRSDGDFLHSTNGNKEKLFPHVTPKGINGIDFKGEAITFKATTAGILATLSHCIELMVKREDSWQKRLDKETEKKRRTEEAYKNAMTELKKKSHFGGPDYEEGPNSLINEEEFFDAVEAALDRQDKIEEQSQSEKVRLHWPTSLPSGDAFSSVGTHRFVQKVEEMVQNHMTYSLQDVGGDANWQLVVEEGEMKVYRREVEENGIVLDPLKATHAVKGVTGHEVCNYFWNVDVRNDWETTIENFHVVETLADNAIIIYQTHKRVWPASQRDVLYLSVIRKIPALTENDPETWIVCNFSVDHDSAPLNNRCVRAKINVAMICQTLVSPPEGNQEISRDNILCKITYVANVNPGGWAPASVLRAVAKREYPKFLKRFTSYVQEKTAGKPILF
Assay: Liposomal FRET CERT transfer assay (NBD-Cer/NR-Cer), 96-well
Type: biochemical
Details: dose-response
Description: 2. Assessment of CERT-transfer Activity
2.1 Reagents and materials
Egg phosphatidylcholine (PC) and egg phosphatidylethanolamine (PE) were purchased from Sigma. Fluorescence (nitrobenzoxadiazole (NBD), 7-Methoxycumarin-3-carboxylat (MCC), 9-Diethylamino-5-oxo-5H-benzo[a]phenoxazin-2-yl (NR)) labeled-ceramide, were chemically synthesized (section 5). (1R,3S) and (1R, 3R) -N-(3Hydroxy-1-hydroxymethyl-3-phenylpropyl)- dodecamide (HPA-12) were synthesized as previously described.
Two donor and acceptor liposomes were prepared one acts as donor liposome (NBD-Cer or MCC-Cer) and the other as acceptor liposome (NR-Cer or NBD-Cer). The donor and acceptor liposomes were mixed in proper percentage for establishing two fluorescence resonance energy transfer (FRET) systems (MCC/NBD-ceramide system, or NBD/ NR-ceramide system). The stock solutions of the phospholipids and the fluorescently-labeled ceramide were prepared by dissolving in a mixture of methanol:chloroform (1:1). The liposomes were prepared by mixing […] phosphatidylcholine, 333 µmol phosphatidylethanolamine, and […] fluorescently-labeled ceramide (4:1:1 molar ratio) in siliconized Eppendorf tubes. The mixture was dried under argon stream to yield a waxy lipid film. The obtained waxy residue was hydrated with Tris.HCl buffer (1mL, 2 mM, pH 7.4) to a final concentration of 2 mM and the resulting mixture was vortexed for 1 min. The lipid mixture was subjected to 6 freeze-thawing cycles with liquid nitrogen and shaking incubator at 37 °C. Afterwards, the lipid suspension was sonicated with a Cup-Horn sonicator for 20 sec, followed by vigorous shaking on vortex for 1 min. Finally, the lipid mixture was extruded with a mini extruder (Avanti polar lipids) by forcing the suspension through two polycarbonate filters with 100 nm pore size for 13 times to afford a solution of liposome type.
2.4 Development of high throughput screening CERT-assay (96-well plate format) The assay was performed in non-binding clear-bottom 96-well microplate (Greiner Bio-One). […] The plate was placed in the microplate reader (LABTECH) at 30°C with shaking. The fluorescence was measured from the bottom over 1h (number of cycles 35, delay 70 sec) with excitation filter 485 nm and emission filter 640 nm (for NBD-Cer/NR-ceramide FRET system) or excitation filter 347 nm and emission filter 536 nm (for Coumarin (MMC-Cer), NBD-ceramide (NBD-Cer) FRET system). The transfer efficiency was calculated using the formula: Ix = I0(À1-X)/I(À2-Y), where À1 is the average of the florescence of the control of liposome mixture in Tris.HCl buffer, X is the average of the fluorescence of the buffer alone, À2 is the fluorescence average of the assay mixture, Y is the fluorescence average of the CERT aliquot with […]

Row | SMILES | activity in the transfer assay
1 | Cc1cc(C2=NOC(c3cc(Cl)cc(Cl)c3)(C(F)(F)F)C2)ccc1C(=O)NCC(=O)NCC(F)(F)F (stereo not shown) [20D5, Fluralaner] | high activity
2 | CCCC(=O)OCOC(=O)C1=C(C)NC(C)=C(C(=O)OC)C1c1cccc(Cl)c1Cl (stereo not shown) [6B11, Clevidipine butyrate] | high activity
3 | CC1=NN(c2ccc(C)c(C)c2)C(=O)/C1=N\Nc1cccc(-c2cccc(C(=O)O)c2)c1O [17C9, Eltrombopag] | weak dose‐response
4 | O=C(NC1CCN(CCCCC2(C(=O)NCC(F)(F)F)c3ccccc3-c3ccccc32)CC1)c1ccccc1-c1ccc(C(F)(F)F)cc1 [8E8, lomitapide] | high activity
